Measurements from patent US8318757B2, “Substituted isoxazoline compound and pest control agent” (Nissan Chemical Industries, Ltd., priority 2007, dated 2012).
Where two headings read alike, the source gives them in different places.

Assays:
Assay type in all cases: in vivo
Plutella xylostella = assay: whole plant or invertebrate; details: 144 h
Experimental: (§1) A 10% emulsifiable concentrate of the compound of the present invention (depending on the type of the compound, a 10% wettable powder was subjected to the test) was diluted with water containing a spreader to prepare a drug solution in a concentration of 10 ppm. In this drug solution, a leaf of cabbage was immersed for about 10 seconds and was air-dried and then put into a petri dish. In the petri dish, five 2 instar larvae of Plutella xylostella per petri dish were released and the petri dish was capped and stored in a thermostatic room of 25° C. The number of killed larvae after 6 days was measured and the mortality was calculated from the following calculation formula: Mortality (%)=(number of killed insect/number of released insect)×100. Here, the test was carried out on the duplicate samples.

Spodoptera litura = assay: whole plant or invertebrate; details: 144 h
Experimental: as §1, with “Spodoptera litura” for “Plutella xylostella”, “same” for “following”, “formula as that in Test Example 1.” for “formula: Mortality (%)=(number of killed insect/number of released insect)×100.”

Spodoptera exigua = assay: Mortality Test for Spodoptera exigua; details: 144 h
Experimental: as §1, with “of 100” for “of 10”, “of Spodoptera exigua” for “of Plutella xylostella”, “the same” for “the following”, “calculation formula as that in Test Example 1.” for “calculation formula: Mortality (%)=(number of killed insect/number of released insect)×100.”

Aculops pelekassi = assay: whole plant or invertebrate; details: 144 h
Experimental: (§2) In a styrol cup having an inner diameter of 7 cm, a wet filtration paper was laid and on the paper, a leaf of mandarin orange cut out so as to have the same diameter as the inner diameter of the cup was laid, followed by inoculating ten larvae of Aculops pelekassi per leaf with the leaf. A 10% emulsifiable concentrate of the compound of the present invention (depending on the type of the compound, a 10% wettable powder was subjected to the test) was diluted with water containing a spreader to prepare a drug solution in a concentration of 100 ppm. The drug solution was sprayed using a rotary spray tower in an amount of 2.5 mL per styrol cup, and the cup was capped and stored in a thermostatic room of 25° C. The number of killed larvae after 6 days was measured and the mortality was calculated from the same calculation formula as that in Test Example 1. Here, the test was carried out on the duplicate samples.

Homona magnanima = assay: Mortality Test for Homona magnanima; details: in Brassica oleracea, 144 h
Experimental: as §1, with “of 100” for “of 10”, “of Homona magnanima” for “of Plutella xylostella”, “the same” for “the following”, “calculation formula as that in Test Example 1.” for “calculation formula: Mortality (%)=(number of killed insect/number of released insect)×100.”

Nilaparvata lugens = assay: whole plant or invertebrate; details: 144 h
Experimental: A 10% emulsifiable concentrate of the compound of the present invention (depending on the type of the compound, a 10% wettable powder was subjected to the test) was diluted with water containing a spreader to prepare a drug solution in a concentration of 500 ppm. In this drug solution, a leaf sheath of rice was immersed for about 10 seconds and was air-dried and then put into a test tube. In the test tube, five 2 instar larvae of Nilaparvata lugens per test tube were released and the test tube was capped with a sponge and stored in a thermostatic room of 25° C. The number of killed larvae after 6 days was measured and the mortality was calculated from the same calculation formula as that in Test Example 1. Here, the test was carried out on the duplicate samples.

Bemisia argentifolii = assay: whole plant or invertebrate; details: 144 h
Experimental: In a styrol cup having an inner diameter of 7 cm, a wet filtration paper was laid and on the paper, a cut-out leaf of tomato on which Bemisia argentifolii laid eggs (10 eggs/leaf) was laid. A 10% emulsifiable concentrate of the compound of the present invention (depending on the type of the compound, a 10% wettable powder was subjected to the test) was diluted with water containing a spreader to prepare a drug solution in a concentration of 500 ppm. The drug solution was sprayed using a rotary spray tower in an amount of 2.5 mL per styrol cup, and the cup was capped and stored in a thermostatic room of 25° C. The number of killed larvae after 6 days was measured and the mortality was calculated from the same calculation formula as that in Test Example 1. Here, the test was carried out on the duplicate samples.

Myzus persicae = assay: whole plant or invertebrate; details: 144 h
Experimental: In a glass petri dish having an inner diameter of 3 cm, a wet absorbent cotton was laid and on the cotton, a leaf of cabbage cut out so as to have the same diameter as the inner diameter of the petri dish was laid, followed by releasing four apterous imagines of Myzus persicae on the leaf. After one day, a 10% emulsifiable concentrate of the compound of the present invention (depending on the type of the compound, a 10% wettable powder was subjected to the test) was diluted with water containing a spreader to prepare a drug solution in a concentration of 500 ppm. The drug solution was sprayed using a rotary spray tower (2.5 mg/cm^2), and the petri dish was capped and stored in a thermostatic room of 25° C. The number of killed imagines after 6 days was measured and the mortality was calculated from the same calculation formula as that in Test Example 1. Here, the test was carried out on the duplicate samples.

Liriomyza trifolii = assay: whole plant or invertebrate; details: 144 h
Experimental: A 10% emulsifiable concentrate of the compound of the present invention (depending on the type of the compound, a 10% wettable powder was subjected to the test) was diluted with water containing a spreader to prepare a drug solution in a concentration of 500 ppm. In this drug solution, a leaf of kidney bean which was cut out to a diameter of 7 cm, on which Liriomyza trifolii laid eggs (10 eggs/leaf) was immersed for about 10 seconds and was air-dried and then laid on a wet filtration paper laid in a styrol cup having an inner diameter of 7 cm. The styrol cup was capped and stored in a thermostatic room of 25° C. The number of killed larvae after 6 days was measured and the mortality was calculated from the same calculation formula as that in Test Example 1. Here, the test was carried out on the duplicate samples.

Cat Flea = assay: Mortality Test for Cat Flea; details: Ctenocephalides felis, 96 h
Experimental: To the bottom surface and the side surface of a petri dish having an inner diameter of 5.3 cm, 400 μL of an acetone solution in which 4 mg of the compound of the present invention was dissolved in 40 mL of acetone (concentration: 100 ppm) was applied and then acetone was volatilized to form a thin film of the compound of the present invention on the inner wall of the petri dish. […] In the petri dish, ten Ctenocephalides felis imagines (male and female were mixed) were released and the petri dish was capped and stored in a thermostat room of 25° C. The number of killed imagines after 4 days was measured and the mortality was calculated from the same calculation formula as that in Test Example 1. Here, the test was carried out on the single sample.

American Dog Tick = assay: Mortality Test for American Dog Tick; details: Dermacentor variabilis, 96 h; thin film in petri dishes, applied drug 0.1 μg/cm^2; protonymphs; after 4 days
Experimental: To the bottom surface and the side surface of two petri dishes having an inner diameter of 5.3 cm, 400 μL of an acetone solution in which 4 mg of the compound of the present invention was dissolved in 40 mL of acetone (concentration: 100 ppm) was applied and then acetone was volatilized to form a thin film of the compound of the present invention on the inner wall of the petri dishes. […] In one of the petri dishes, ten American dog tick (Dermacentor variabilis) protonymphs (male and female were mixed) were released, and the petri dish was capped with the other petri dish. […] The number of killed protonymphs after 4 days was measured and the mortality was calculated from the same calculation formula as that in Test Example 1. Here, the test was carried out on the single sample.

[1] = test system: Frankliniella occidentalis; assay: whole plant or invertebrate; details: in Phaseolus vulgaris, 48 h
Experimental: as §2, with “kidney bean” for “mandarin orange”, “ten 1 instar” for “ten”, “Frankliniella occidentalis” for “Aculops pelekassi”, “500” for “100”, “2” for “6”

Tetranychus urticae = assay: whole plant or invertebrate; details: in Phaseolus vulgaris, 144 h
Experimental: as §2, with “kidney bean” for “mandarin orange”, “Tetranychus urticae” for “Aculops pelekassi”, “500” for “100”

[2] = drug solution 100 ppm (mark *), cabbage leaf immersed, 2 instar larvae, after 6 days, read-out: mortality

CS(CC(=O)NCc1ccc(C2=NOC(c3cc(Cl)c(Cl)c(C(F)(F)F)c3)(C(F)(F)F)C2)cc1Br)=NC(=O)C(F)(F)F (stereo not drawn) [1-102, N-[2-bromo-4-[5-[3,4-dichloro-5-(trifluoromethyl)phenyl]-5-trifluoromethyl-4,5-dihydroisoxazole-3-yl]phenyl]methyl-2-[N-(trifluoroacetyl)methylsulfinimidoyl]acetamide]
≥ 80%: mortality at 10 ppm (Plutella xylostella; in Brassica oleracea) | mortality at 10 ppm (Spodoptera litura; in Brassica oleracea) | mortality at 100 ppm (Spodoptera exigua; in Brassica oleracea) | mortality at 100 ppm (Aculops pelekassi)

CS(=O)(=O)CC(=O)NCc1ccc(C2=NOC(c3cc(Br)cc(C(F)(F)F)c3)(C(F)(F)F)C2)cc1Cl (stereo not drawn) [1-113, N-[4-[5-[3-bromo-5-(trifluoromethyl)phenyl]-5-trifluoromethyl-4,5-dihydroisoxazole-3-yl]-2-chlorophenyl]methyl-2-(methylsulfonyl)acetamide]
≥ 80%: mortality at 100 ppm (Plutella xylostella; [2]) | mortality at 100 ppm (Spodoptera litura; [2]) | mortality at 100 ppm (Spodoptera exigua; drug solution 100 ppm, cabbage leaf immersed, 2 instar larvae, after 6 days, read-out: mortality) | mortality at 100 ppm (Homona magnanima) | mortality at 500 ppm (Nilaparvata lugens; drug solution 500 ppm, rice leaf sheath immersed, 2 instar larvae, after 6 days, read-out: mortality) | mortality at 500 ppm (Bemisia argentifolii; drug solution 500 ppm sprayed, tomato leaf with eggs, after 6 days, read-out: mortality) | mortality at 500 ppm (Myzus persicae; drug solution 500 ppm sprayed, cabbage leaf, apterous imagines, after 6 days, read-out: mortality) | mortality at 500 ppm (Liriomyza trifolii; drug solution 500 ppm, kidney bean leaf with eggs immersed, after 6 days, read-out: mortality) | mortality at 100 ppm (Aculops pelekassi; drug solution 100 ppm sprayed, mandarin orange leaf, larvae, after 6 days, read-out: mortality)

CSC(SC)C(=O)NCc1ccc(C2=NOC(c3cc(C(F)(F)F)cc(C(F)(F)F)c3)(C(F)(F)F)C2)cc1Cl (stereo not drawn) [1-206, N-[4-[5-[3,5-bis(trifluoromethyl)phenyl]-5-trifluoromethyl-4,5-dihydroisoxazole-3-yl]-2-chlorophenyl]methyl-2,2-bis(methylthio)acetamide]
≥ 80%: mortality at 100 ppm (Spodoptera exigua; in Brassica oleracea) | mortality at 100 ppm (Aculops pelekassi) | mortality at 1 µg/cm2 (Cat Flea) | mortality at 0.1 µg/cm2 (American Dog Tick)

CCSCC(=O)N(C)Cc1ccc(C2=NOC(c3cc(Cl)c(Cl)c(Cl)c3)(C(F)(F)F)C2)cc1Cl (stereo not drawn) [2-002, N-[2-chloro-4-[5-(3,4,5-trichlorophenyl)-5-trifluoromethyl-4,5-dihydroisoxazole-3-yl]phenyl]methyl-2-ethylthio-N-methylacetamide]
≥ 80%: mortality at 100 ppm (Homona magnanima) | mortality at 500 ppm [1] | mortality at 500 ppm (Nilaparvata lugens; in Oryza sativa) | mortality at 500 ppm (Bemisia argentifolii; in Solanum lycopersicum) | mortality at 500 ppm (Myzus persicae; in Brassica oleracea) | mortality at 500 ppm (Tetranychus urticae)

CCS(=O)(=O)CC(=O)N(C)Cc1ccc(C2=NOC(c3cc(Cl)c(Cl)c(Cl)c3)(C(F)(F)F)C2)cc1Cl (stereo not drawn) [2-005, N-[2-chloro-4-[5-(3,4,5-trichlorophenyl)-5-trifluoromethyl-4,5-dihydroisoxazole-3-yl]phenyl]methyl-2-ethylsulfonyl-N-methylacetamide]
≥ 80%: mortality at 100 ppm (Homona magnanima) | mortality at 500 ppm [1] | mortality at 500 ppm (Nilaparvata lugens; in Oryza sativa) | mortality at 500 ppm (Bemisia argentifolii; in Solanum lycopersicum) | mortality at 500 ppm (Myzus persicae; in Brassica oleracea) | mortality at 500 ppm (Liriomyza trifolii; in Phaseolus vulgaris) | mortality at 500 ppm (Tetranychus urticae)
